Target: Cathepsin S (Homo sapiens, UniProt P25774)
Sequence (P25774 whole entry): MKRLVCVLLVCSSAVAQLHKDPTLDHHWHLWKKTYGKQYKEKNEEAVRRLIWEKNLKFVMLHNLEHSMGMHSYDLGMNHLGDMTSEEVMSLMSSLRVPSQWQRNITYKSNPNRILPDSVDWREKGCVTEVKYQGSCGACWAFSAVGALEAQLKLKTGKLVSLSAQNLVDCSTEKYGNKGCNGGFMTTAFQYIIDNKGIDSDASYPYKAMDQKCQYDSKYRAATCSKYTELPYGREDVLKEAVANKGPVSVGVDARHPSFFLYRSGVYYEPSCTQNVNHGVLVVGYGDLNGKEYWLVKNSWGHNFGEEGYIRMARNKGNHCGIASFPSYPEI
Experiment: Inhibitory concentration against human cysteine protease cathepsin S
Compound N#Cc1ccccc1N1CCN(CC(Cn2nc(-c3ccc(I)cc3)c3c2CCN(C(N)=O)C3)OC(N)=O)CC1 (configuration not stated) has an IC50 of 20 nM. Compound CC(=O)N1CCc2c(c(-c3ccc(Cl)cc3)nn2CC(O)CN2CCN(C(c3ccc(F)cc3)c3ccc(F)cc3)CC2)C1 (configuration not stated) has an IC50 of 1000 nM. Compound COc1ccccc1N1CCN(CCCCn2nc(-c3ccc(Cl)cc3)c3c2CCN(C(C)=O)C3)CC1 has an IC50 of 9500 nM. Work on CC(=O)N1CCc2c(c(-c3ccc(Cl)cc3)nn2CC(O)CN2CCN(c3ccccc3Cl)CC2)C1 (configuration not stated) yielded an IC50 of 1000 nM. In the case of COc1ccccc1N1CCN(CC(O)Cn2nc(-c3ccc(I)cc3)c3c2CCN(C(C)=O)C3)CC1 (configuration not stated), the IC50 is reported as 600 nM. Compound Cc1ccccc1N1CCN(CC(O)Cn2nc(-c3ccc(I)cc3)c3c2CCN(C(N)=O)C3)CC1 (configuration not stated) has an IC50 of 14000 nM.

Test system: not listed separately
Experiment: Inhibitory concentration against human Li processing
Assay type: functional
In the case of N#Cc1ccccc1N1CCN(CC(Cn2nc(-c3ccc(I)cc3)c3c2CCN(C(N)=O)C3)OC(N)=O)CC1 (configuration not stated), the IC50 is reported as 880 nM.

From ChEMBL document CHEMBL1137979, “Nonpeptidic, noncovalent inhibitors of the cysteine protease cathepsin S” (J Med Chem, 2004)
